Data reported in patent US20260265247A1, “MULTI-KINASE INHIBITORS, COMPOSITIONS THEREOF, AND METHODS OF USING THE SAME” (BIOFRONT LTD, priority 2022, published 2026).

Columns and labels:
Format in all cases: biochemical
[1] = target: T1, Aurora A (Homo sapiens, UniProt O14965); assay: Aurora A Enzymatic Assay; details: enzyme inhibition; peptide 21 3 μM, ATP 14.58 μM
T1 construct: purchased Carna 05-101
T1 sequence (O14965 1-403): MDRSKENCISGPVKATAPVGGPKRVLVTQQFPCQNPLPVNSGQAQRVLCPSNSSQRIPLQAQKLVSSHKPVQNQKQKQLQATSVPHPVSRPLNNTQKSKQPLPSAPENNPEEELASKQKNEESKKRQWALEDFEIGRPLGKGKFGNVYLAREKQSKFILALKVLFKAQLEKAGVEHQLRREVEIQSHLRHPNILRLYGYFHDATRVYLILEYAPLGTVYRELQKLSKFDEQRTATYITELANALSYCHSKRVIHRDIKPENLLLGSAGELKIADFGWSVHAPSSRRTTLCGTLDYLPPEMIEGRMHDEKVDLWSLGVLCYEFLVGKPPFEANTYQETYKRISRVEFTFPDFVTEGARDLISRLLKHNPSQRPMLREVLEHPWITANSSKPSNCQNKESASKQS
Protocol: (§1) The compound was dissolved in 100% DMSO at the concentration of 10 mM. The Aurora A protein was purchased from Carna (05-101). 10 μL per well of 2.5× Aurora A protein was added to assay plate containing the test compound, centrifuged at 1000 rpm for 1 minute, and then incubated at 25° C. for 10 minutes. Peptide 21 was purchased from GL Biochem (116370) and ATP was purchased from Promega (V9102). The two were added 15 μL per well mixture of 1.67× peptide 21 (final conc. is 3 μM) and ATP (final conc. is 14.58 μM), centrifuged at 1000 rpm for 1 minute, then incubated at 25° C. for 40 minutes. Then added 30 μL of stop buffer (100 mM HEPES pH7.5, 0.015% Brij-35, 0.2% Coating Reagent 3, 50 mM EDTA) to the assay plate and centrifuged at 1000 rpm for 1 minute. the product was determined. Based on the results, the IC50 value of the compound was calculated.

[2] = target: T2, FLT3-ITD (Homo sapiens, UniProt P36888); assay: FLT3-ITD Enzymatic Assay; details: enzyme inhibition; peptide 2 3 μM, ATP 97.2 μM
T2 sequence (P36888 1-993): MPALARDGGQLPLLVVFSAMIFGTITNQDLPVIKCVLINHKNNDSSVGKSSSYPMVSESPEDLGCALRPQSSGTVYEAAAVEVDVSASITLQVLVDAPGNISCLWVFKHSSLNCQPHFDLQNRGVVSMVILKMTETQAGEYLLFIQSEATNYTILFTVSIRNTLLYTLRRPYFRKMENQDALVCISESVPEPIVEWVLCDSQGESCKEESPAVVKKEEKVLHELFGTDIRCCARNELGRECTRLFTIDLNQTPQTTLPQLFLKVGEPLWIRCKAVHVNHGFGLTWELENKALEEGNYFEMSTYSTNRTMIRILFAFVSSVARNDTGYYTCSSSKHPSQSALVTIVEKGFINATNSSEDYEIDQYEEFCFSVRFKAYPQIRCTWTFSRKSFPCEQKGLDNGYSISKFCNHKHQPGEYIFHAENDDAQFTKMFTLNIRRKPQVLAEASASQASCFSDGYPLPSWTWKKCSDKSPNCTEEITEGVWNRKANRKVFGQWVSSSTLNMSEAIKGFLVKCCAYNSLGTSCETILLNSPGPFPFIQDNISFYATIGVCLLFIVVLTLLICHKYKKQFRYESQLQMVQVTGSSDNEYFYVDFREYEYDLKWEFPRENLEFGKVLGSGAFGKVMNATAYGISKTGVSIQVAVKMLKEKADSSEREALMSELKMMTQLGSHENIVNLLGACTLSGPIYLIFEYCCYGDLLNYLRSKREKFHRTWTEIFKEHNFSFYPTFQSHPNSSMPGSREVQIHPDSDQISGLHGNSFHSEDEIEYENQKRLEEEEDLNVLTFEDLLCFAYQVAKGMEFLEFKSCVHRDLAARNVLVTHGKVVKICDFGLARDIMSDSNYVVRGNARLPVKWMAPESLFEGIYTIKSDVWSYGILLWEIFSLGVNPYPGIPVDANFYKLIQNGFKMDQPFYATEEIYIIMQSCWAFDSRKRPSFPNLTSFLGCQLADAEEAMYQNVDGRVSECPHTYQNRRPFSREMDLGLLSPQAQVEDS
Protocol: as §1, with “FLT3-ITD” for “Aurora A”, “Invitrogen (PV6191).” for “Carna (05-101).”, “2” for “21”, “(112394)” for “(116370)”, “97.2” for “14.58”

[3] = target: T3, HPK1 (Homo sapiens, UniProt Q92918); assay: HPK1 Enzymatic Assay (ADP-Glo); details: enzyme inhibition; MBP substrate, ATP 20 μM mixture
T3 construct: purchased Signal Chem M23-11G-10
T3 sequence (Q92918 1-346 limits assumed): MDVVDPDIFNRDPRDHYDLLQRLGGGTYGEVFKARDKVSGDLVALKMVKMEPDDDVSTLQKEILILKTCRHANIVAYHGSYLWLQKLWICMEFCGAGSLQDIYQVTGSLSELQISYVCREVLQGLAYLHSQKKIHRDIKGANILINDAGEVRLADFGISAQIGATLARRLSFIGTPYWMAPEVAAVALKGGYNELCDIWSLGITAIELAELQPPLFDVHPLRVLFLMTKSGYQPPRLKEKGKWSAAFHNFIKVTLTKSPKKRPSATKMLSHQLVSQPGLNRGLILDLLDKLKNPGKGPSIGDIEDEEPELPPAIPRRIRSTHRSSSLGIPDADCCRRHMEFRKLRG
Protocol: The compound was dissolved in 100% DMSO at the concentration of 10 mM. The HPK1 protein was purchased from Signal Chem (M23-11G-10). 2.5 μL per well of 2× HPK1 protein was added to assay plate containing the test compound, centrifuged at 1500 rpm for 1 minute, and then incubated at 25° C. for 60 minutes. MBP protein was purchased from Signal Chem (M42-51N) and ATP was purchased from Promega (V9102). The two were added 2.5 μL per well mixture of 2× MBP (0.2 ug/ul) and ATP (20 μM), centrifuged at 1500 rpm for 1 minute, then incubated at 25° C. for 60 minutes. Then added 5 μL of ADP-Glo from Promega (V9102) to the assay plate and depleted the unconsumed ATP for 60 minutes. Then centrifuged at 1500 rpm for 1 minute and incubated at 25° C. for 60 minutes. Finally, 10 μL of the kinase assay reagent from Promega (V9102) was added to the assay plate to convert ADP to ATP, centrifuged at 1500 rpm for 1 minute, incubate at 25° C. for 40 minutes. After 40 minutes incubation, the fluorescence was determined. Based on the results, the IC50 value of the compound was calculated.

Compound	IC50 [1]	IC50 [2]	IC50 [3]
CCc1c[nH]c2ncc(-c3cccc(-n4cn[nH]c4=O)c3)c(Cl)c12 [Compound 1, 4-(3-(4-chloro-3-ethyl-1H-pyrrolo[2,3-b]pyridin-5-yl)phenyl)-2,4-dihydro-3H-1,2,4-triazol-3-one]	0.0358 µM	0.0378 µM	0.0206 µM
O=C1NCCCN1c1nc(-c2cnc3[nH]cc(C4CC4)c3c2Cl)cs1 [Compound 5]	0.0031 µM	0.0022 µM	0.0189 µM
Cc1sc(N2CCCNC2=O)nc1-c1cnc2[nH]cc(C3CC3)c2c1Cl [Compound 7, 1-(4-(4-chloro-3-cyclopropyl-1H-pyrrolo[2,3-b]pyridin-5-yl)-5-methylthiazol-2-yl)tetrahydropyrimidin-2(1H)-one]	0.0937 µM	0.0042 µM	0.126 µM
O=C1NCCCN1c1cccc(-c2cnc3[nH]cc(C4CC4)c3c2Cl)n1 [Compound 8, 1-(6-(4-chloro-3-cyclopropyl-1H-pyrrolo[2,3-b]pyridin-5-yl)pyridin-2-yl)tetrahydropyrimidin-2(1H)-one]	0.0078 µM	0.006 µM	0.0024 µM
O=C1NC2(CCNC2)C(=O)N1c1cccc(-c2cnc3[nH]cc(C4CC4)c3c2Cl)c1 (stereo not drawn) [Compound 10, 3-(3-(4-chloro-3-cyclopropyl-1H-pyrrolo[2,3-b]pyridin-5-yl)phenyl)-1,3,7-triazaspiro[4.4]nonane-2,4-dione]	0.0274 µM	0.0116 µM	0.0144 µM
CCN(C)C(=O)c1c[nH]c2ncc(-c3cccc(N4CCCNC4=O)c3)c(Cl)c12 [Compound 12, 4-Chloro-N-ethyl-N-methyl-5-(3-(2-oxotetrahydropyrimidin-1 (2H)-yl)phenyl)-1H-pyrrolo[2,3-b]pyridine-3-carboxamide]	> 1 µM	> 0.99 µM	> 1 µM
N#Cc1cc(-c2cnc3[nH]cc(C4CC4)c3c2Cl)cc(N2CCCNC2=O)c1 [Compound 13, 3-(4-chloro-3-cyclopropyl-1H-pyrrolo[2,3-b]pyridin-5-yl)-5-(2-oxotetrahydropyrimidin-1(2H)-yl)benzonitrile]	0.0789 µM	0.0936 µM	0.827 µM
CS(=O)(=O)c1ccc(-c2cnc3[nH]cc(C4CC4)c3c2Cl)cc1N1CCCNC1=O [Compound 14, 1-(5-(4-chloro-3-cyclopropyl-1H-pyrrolo[2,3-b]pyridin-5-yl)-2-(methylsulfonyl)phenyl)tetrahydropyrimidin-2(1H)-one]	0.0071 µM	0.0374 µM	0.151 µM

The remaining lines, values ahead:

IC50 [1]	IC50 [2]	IC50 [3]	Compound
0.0536 µM	0.0237 µM	0.0182 µM	O=c1[nH]ncn1-c1cccc(-c2cnc3[nH]cc(C4CC4)c3c2Cl)c1 [Compound 2, 4-(3-(4-chloro-3-cyclopropyl-1H-pyrrolo[2,3-b]pyridin-5-yl)phenyl)-2,4-dihydro-3H-1,2,4-triazol-3-one]
0.0133 µM	0.0225 µM	0.0257 µM	CCc1c[nH]c2ncc(-c3cccc(N4CCNC4=O)c3)c(Cl)c12 [Compound 3]
0.0229 µM	0.0146 µM	0.0276 µM	O=C1NCCN1c1cccc(-c2cnc3[nH]cc(C4CC4)c3c2Cl)c1 [Compound 4]
0.0095 µM	0.0061 µM	0.0143 µM	O=C1NCCN1c1cccc(-c2cnc3[nH]cc(C4CC4)c3c2Cl)n1 [Compound 6, 1-(6-(4-chloro-3-cyclopropyl-1H-pyrrolo[2,3-b]pyridin-5-yl)pyridin-2-yl) imidazolidin-2-one]
0.172 µM	0.0008 µM	0.002 µM	CCc1c[nH]c2ncc(-c3cccc(N4CCCNC4=O)c3)c(Cl)c12 [Compound 9]
0.0343 µM	0.0223 µM	0.0157 µM	O=C1NC2(CCNC2)CN1c1cccc(-c2cnc3[nH]cc(C4CC4)c3c2Cl)c1 (stereo not drawn) [Compound 11, 3-(3-(4-chloro-3-cyclopropyl-1H-pyrrolo[2,3-b]pyridin-5-yl)phenyl)-1,3,7-triazaspiro[4.4]nonan-2-one]
